Where only a bound is given, the exact number is not on record here.

One data set relates to HIV. In words: microbe, parasite or virus in culture. The data set is classed as cell-based.
A short description of another data set: in vitro. The note with it: human.
For the next data set, the system named is H5N1 virus. In words: microbe, parasite or virus in culture. The data set is classed as cell-based, H5N1 influenza virus. Conditions: Influenza A virus, read-out: % Inhibition against H5N1 virus; for inhibition at 1 µg/mL: H5N1, A549, 1000 ng/mL; for inhibition at 5 µg/mL: H5N1, A549, 5000 ng/mL; for inhibition at 0.05 µg/mL: H5N1, A549, 50 ng/mL; for inhibition at 0.25 µg/mL: H5N1, A549, 250 ng/mL.

In general, EC50 refers to the concentration at which the effect is half-maximal. The low end stands for a more potent agent, the high end for a less potent agent. In the case of `COc1cc2c(NC(C)=O)c3c(c(-c4ccc5c(c4)OCO5)c2cc1OC)C(=O)OC3` [Compound 24], in the data set on HIV (Human immunodeficiency virus 1, A549), the midpoint of the response, the EC50, lay at 88.9 nM. Moreover, the CC50 in “in vitro” (CC50 (nM)) is over 11900 nM. For orientation: inhibition means how much of the control response was suppressed. As to `COc1cc2c(OC3OC[C@@H](O)[C@H](OC(C)=O)[C@H]3O)c3c(c(-c4ccc5c(c4)OCO5)c2cc1OC)C(=O)OC3` (stereo partly drawn) [Compound 27ab, 3″-Acetyl-7-O-β-D-xylosyldiphyllin], in “in vitro” (CC50 (nM)), the CC50 came to 2760 nM. Further, in the data set on H5N1 virus, the inhibition at 1 µg/mL turned out to be 96.9% and the inhibition at 5 µg/mL turned out to be 97.8%. In the case of `COc1cc2c(OC3O[C@H](C)[C@@H](OC(C)=O)[C@H](OC(C)=O)[C@H]3OC(C)=O)c3c(c(-c4ccc5c(c4)OCO5)c2cc1OC)C(=O)OC3` (stereo partly drawn) [Compound 25b, Peracetylated Patentiflorin A], the CC50 in the data set “in vitro” (CC50 (nM)) is 259 nM.

Regarding `COc1cc2c(OC3OC[C@@H](OC(C)=O)[C@H](OC(C)=O)[C@H]3O)c3c(c(-c4ccc5c(c4)OCO5)c2cc1OC)C(=O)OC3` (stereo partly drawn) [Compound 27ad, 3″, 4″-Diacetyl-7-O-β-D-xylosyldiphyllin], in “in vitro” (CC50 (nM)), the CC50 was 783 nM. Same read-out and setting: the same measure for `COc1cc2c(OC(C)=O)c3c(c(-c4ccc5c(c4)OCO5)c2cc1OC)C(=O)OC3` [Compound 16]: 3400 nM; for `COc1cc2c(OC3OC[C@@H](OC(C)=O)[C@H](O)[C@H]3OC(C)=O)c3c(c(-c4ccc5c(c4)OCO5)c2cc1OC)C(=O)OC3` (stereo partly drawn) [Compound 27ae, 2″,4″-Diacetyl-7-O-β-D-xylosyldiphyllin]: 2590 nM.

For `COc1cc2c(OC3OC[C@@H](O)[C@H](O)[C@H]3O)c3c(c(-c4ccc5c(c4)OCO5)c2cc1OC)C(=O)OC3` (stereo partly drawn) [Compound 26a, 7β-D-xylosyloxydiphyllin], the CC50 in “in vitro” (CC50 (nM)) amounted to 6220 nM. Besides, in the data set with H5N1 virus, the inhibition at 1 µg/mL was 93.6% and the inhibition at 5 µg/mL is 97.8%.

Turning to `COc1cc2c(OC3O[C@H](C)[C@@H](O)[C@H](OC(=O)c4cnccn4)[C@H]3O)c3c(c(-c4ccc5c(c4)OCO5)c2cc1OC)C(=O)OC3` (stereo partly drawn) [Compound 31i, 3″-O-pyrazinecarbonyl-7-O-β-D-patentiflorin A], the “anti-HIV activity in terms of SI values” with HIV is on record as “much more improved anti-HIV activity”.

Turning to `COc1cc2c(OC3O[C@H](C)[C@@H](O)[C@H](OC(=O)N(C)C)[C@H]3O)c3c(c(-c4ccc5c(c4)OCO5)c2cc1OC)C(=O)OC3` (stereo partly drawn) [Compound 31f, 3″-O-dimethylcarbamyl-7-O-β-D-patentiflorin A], the CC50 in “in vitro” (CC50 (nM)) was 3.74 nM. In the data set “in vitro” (CC50 (nM)), `COc1cc2c(OC3O[C@H](C)[C@@H](O)[C@H](OC(=O)C(Cl)(Cl)Cl)[C@H]3O)c3c(c(-c4ccc5c(c4)OCO5)c2cc1OC)C(=O)OC3` (stereo partly drawn) [Compound 31k, 3″-O-trichloroacetyl-7-O-β-D-patentiflorin A] yielded a CC50 of 508 nM. For the same compound, in the data set with H5N1 virus, the inhibition at 0.05 µg/mL worked out at 86% and the inhibition at 0.25 µg/mL came to 95.7%. In “in vitro” (CC50 (nM)), `COc1cc2c(OC3OC[C@@H](O)[C@H](OC(C)=O)[C@H]3OC(C)=O)c3c(c(-c4ccc5c(c4)OCO5)c2cc1OC)C(=O)OC3` (stereo partly drawn) [Compound 27af, 2″,3″-Diacetyl-7-O-β-D-xylosyldiphyllin] registered a CC50 of 2250 nM. In the data set “in vitro” (CC50 against the host cell line A549), `CC(=O)O[C@H]1C(=O)[C@@]2(C)[C@H]([C@H](OC(=O)c3ccccc3)[C@]3(O)C[C@H](OC(=O)[C@H](O)[C@@H](NC(=O)c4ccccc4)c4ccccc4)C(C)=C1C3(C)C)[C@]1(OC(C)=O)CO[C@@H]1C[C@@H]2O` [taxol, reference compound] registered a CC50 of 2.99 nM. Regarding `COc1cc2c(OC3O[C@H](C)[C@@H](O)[C@H](OC(=O)c4ccc(Cl)cc4)[C@H]3O)c3c(c(-c4ccc5c(c4)OCO5)c2cc1OC)C(=O)OC3` (stereo partly drawn) [Compound 31h, 3″-O-p-chlorobenzoyl-7-O-β-D-patentiflorin A], the CC50 in “in vitro” (CC50 (nM)) was determined as 336 nM. In the data set on H5N1 virus, the inhibition at 0.05 µg/mL was determined as 94.6% and the inhibition at 0.25 µg/mL worked out at 97.6%. In the data set “in vitro” (CC50 (nM)), `COc1cc2c(OC3OC[C@H](O)[C@H](O)[C@H]3O)c3c(c(-c4ccc5c(c4)OCO5)c2cc1OC)C(=O)OC3` (stereo partly drawn) [Compound 26c, 7-O-α-L-arabinosyldiphyllin] yielded a CC50 of over 9760 nM. `COc1cc2c(OC3OC[C@@H](O)[C@H](O)[C@H]3OC(C)=O)c3c(c(-c4ccc5c(c4)OCO5)c2cc1OC)C(=O)OC3` (stereo partly drawn) [Compound 27ac]: the CC50 in the data set “in vitro” (CC50 (nM)) came out at 2940 nM.

Source of the values: patent US11638713B2, “Patentiflorin A analogs as antiviral agents” (priority 2019, dated 2023).
